Values of other authors, collected in patent US20110009373A1, “COMPOSITION COMPRISING A COMBINATION OF AN AROMATASE INHIBITOR, A PROGESTIN AND AN OESTROGEN AND ITS USE FOR THE TREATMENT OF ENDOMETRIOSIS” (ASTRAZENECA AB, priority 2003, published 2011).

Tested on: endometriotic lesion
Settings: addition of oestrogen to letrozole; wild type mice and aromatase knockout mice

SMILES: N#Cc1ccc(C(c2ccc(C#N)cc2)n2cncn2)cc1 [letrozole]
- Endometriotic lesion sizes: increases in the endometriotic lesion sizes
